# Measurements from US20240327463A1, “ANTIBACTERIAL PRODUCTS” (priority 2017, published 2024).
# Bridge positions count the residues as written; N and C are the ends. Square brackets hold non-standard residues; d marks the D form. Peptide text beside a SMILES is read from it. dNMeF = CN[C@H](Cc1ccccc1)C(=O)O
# Tests used:
# MRSA ATCC 33591 = conditions: for MIC (MRSA): ATCC 33591
# Description: (§1) For MIC testing all peptides were dissolved in DMSO (according to the method of L. L. Ling, et al., Nature 2015, 517, 455-459). Bacteria were grown on Mueller Hinton broth (oxoid). All incubations were at 37° C. Dilutions were carried out using Mueller Hinton. 100 μl of autoclaved Mueller Hinton broth was added to wells 2-12 on a 96-well plate. 200 μl of the peptide was added to well one at a concentration of 512 μg/ml. 100 μl of peptide in well one was taken up and pipetted into well two. The mixture was then mixed via pipetting before 100 μl was taken up and pipetted into well three. This process was repeated up to well 11. […] This was repeated three times. The 96-well plates were then incubated for 24 hours. The MIC was determined to be the lowest concentration at which there was no growth visible.
# [1] = tested on: Bacillus Cereus ATCC 11788; type: cell-based
# Description: (§2) Bacteria were grown on Mueller Hinton broth (oxoid). All incubations were at 37° C. Dilutions were carried out using Mueller Hinton. […] This process was repeated up to well 11. […] This was repeated three times. […] Results are tabulated in the Examples.
# [2] = tested on: Bacillus Subtilis ATCC 6633; type: cell-based
# Description: as §2
# SA4299 = type: cell-based; conditions: Table 11
# Description: as §2
# SE12228 = type: cell-based
# Description: as §2
# [3] = tested on: Staphylococcus saprophyticus ATCC 15305; type: cell-based; conditions: ATCC 15305
# Description: as §2
# [4] = tested on: Staphylococcus saprophyticus ATCC 49453; type: cell-based; conditions: ATCC 49453
# Description: as §2
# [5] = tested on: Staphylococcus saprophyticus ATCC 49907; type: cell-based; conditions: ATCC 49907
# Description: as §2
# [6] = tested on: Staphylococcus saprophyticus ATCC BAA 750; type: cell-based; conditions: ATCC BAA 750
# Description: as §2
# MRSA ATCC 700699 = experiment: microbe, parasite or virus in culture; conditions: ATCC 700699
# Description: as §1
# MRSA DM21455 (eye) = experiment: microbe, parasite or virus in culture; conditions: DM21455 (eye)
# Description: as §1
# MRSA DR 42412 (sputum) = experiment: microbe, parasite or virus in culture; conditions: DR 42412 (sputum)
# Description: as §1
# [7] = tested on: Staphylococcus aureus ATCC 29213; experiment: microbe, parasite or virus in culture; conditions: ATCC 29213
# Description: as §1
# VRE ATCC 29212 = experiment: microbe, parasite or virus in culture; conditions: ATCC 29212
# Description: as §1
# VRE ATCC 700802 = experiment: microbe, parasite or virus in culture; conditions: ATCC 700802
# Description: as §1
# MRSA 1003 = type: cell-based, Staphylococcus aureus
# Description: as §2
# VRE 1001 = type: cell-based, Enterococcus faecalis
# Description: as §2
# VRE 1002 = type: cell-based, Enterococcus faecalis
# Description: as §2
# VRE 1004 = type: cell-based, Enterococcus faecalis
# Description: as §2
# VRE 1008 = type: cell-based, Enterococcus faecalis
# Description: as §2
# S. aureus ATCC 29213 = experiment: Mice-eye model of S. aureus keratitis; type: in vivo; conditions: for mean corneal thickness: 0.3% topical, baseline 93.8±2.9 μm
# Excerpt: The in vivo efficacy of Compound 26 in the mice-eye model of S. aureus keratitis was examined. S. aureus is one of the major etiological agents for bacterial keratitis and the toxic secretions produced by this microorganism have been implicated in corneal melt, leading to significant morbidity and vision loss. […] A total of 8 doses were applied and the progression of the infection was monitored by slit lamp examination, anterior segment optical coherent tomography (AS-OCT) and microbiological enumeration of the bacterial bioburden. Mice cornea treated with PBS had severe clinical presentation indicated by chemosis, significant presence of hypopyon like materials and corneal infiltrates (FIG. 4).
SMILES,MIC (MRSA) (MRSA ATCC 33591),MIC [1],MIC [2],MIC (SA4299),MIC (SE12228),MIC [3],MIC [4],MIC [5],MIC [6],MIC (MRSA ATCC 700699),MIC (MRSA DM21455 (eye)),MIC (MRSA DR 42412 (sputum)),MIC [7],MIC (VRE ATCC 29212),MIC (VRE ATCC 700802),MIC (MRSA 1003),MIC (VRE 1001),MIC (VRE 1002),MIC (VRE 1004),MIC (VRE 1008),other results
"CC[C@@H](C)[C@@H](NC(=O)[C@@H](CCC(N)=O)NC(=O)[C@H](CO)NC(=O)[C@@H](NC(=O)[C@@H](Cc1ccccc1)NC)[C@@H](C)CC)C(=O)N[C@H](C(=O)N[C@@H](CO)C(=O)N[C@H]1C(=O)N[C@@H](CCCNC(=N)N)C(=O)N[C@@H](CC(C)C)C(=O)N[C@@H]([C@@H](C)CC)C(=O)O[C@H]1C)[C@@H](C)CC [Compound 27, Arg9-Leu10-teixobactin] (H-[dNMeF]IS[dQ][dI]IS[dT]RLI; ester 8-C)",0.125 µg/mL,0.25 µg/mL,<0.0625 µg/mL,0.25 µg/mL,<0.0625 µg/mL,<0.0625 µg/mL,<0.0625 µg/mL,<0.0625 µg/mL,<0.0625 µg/mL,0.5 µg/mL,0.25 µg/mL,<0.0625 µg/mL,0.5 µg/mL,1 µg/mL,0.5 µg/mL,0.25 µg/mL,0.5 µg/mL,1 µg/mL,0.25 µg/mL,0.25 µg/mL,
"CC[C@@H](C)[C@@H](NC(=O)[C@@H](CCCNC(=N)N)NC(=O)[C@H](CCCNC(=N)N)NC(=O)[C@@H](NC(=O)[C@@H](Cc1ccccc1)NC)[C@@H](C)CC)C(=O)N[C@H](C(=O)N[C@@H](CO)C(=O)N[C@H]1C(=O)N[C@@H](C)C(=O)N[C@@H](CC(C)C)C(=O)N[C@@H]([C@@H](C)CC)C(=O)O[C@H]1C)[C@@H](C)CC [Compound 28, Arg3-D-Arg4-Leu10-teixobactin] (H-[dNMeF]IR[dR][dI]IS[dT]ALI; ester 8-C)",,1 µg/mL,<0.0625 µg/mL,0.25 µg/mL,<0.0625 µg/mL,<0.0625 µg/mL,<0.0625 µg/mL,<0.0625 µg/mL,<0.0625 µg/mL,0.5 µg/mL,0.5 µg/mL,0.25 µg/mL,0.25 µg/mL,1 µg/mL,2 µg/mL,1 µg/mL,1 µg/mL,1 µg/mL,0.5 µg/mL,0.5 µg/mL,MIC against MRSA ATCC 33591 (MRSA ATCC 33591; MRSA ATCC 33591): 0.25 µg/mL
"CCC(C)[C@@H]1NC(=O)[C@H](C)NC(=O)[C@H](NC(=O)[C@H](CO)NC(=O)[C@@H](NC(=O)[C@H](NC(=O)[C@@H](CCCNC(=N)N)NC(=O)[C@H](CO)NC(=O)[C@@H](NC(=O)[C@@H](Cc2ccccc2)NC)[C@@H](C)CC)[C@H](C)CC)[C@@H](C)CC)[C@H](C)OC(=O)[C@H]([C@@H](C)CC)NC1=O (stereo partly drawn) [Compound 33, D-Arg4-Ile10-teixobactin]",0.125 µg/mL,<0.0625 µg/mL,<0.0625 µg/mL,,<0.0625 µg/mL,<0.0625 µg/mL,<0.0625 µg/mL,<0.0625 µg/mL,<0.0625 µg/mL,0.25 µg/mL,0.03125 µg/mL,<0.0625 µg/mL,0.0625 µg/mL,0.25 µg/mL,0.25 µg/mL,<0.0625 µg/mL,0.5 µg/mL,1 µg/mL,0.5 µg/mL,0.5 µg/mL,
"COc1c(N2C[C@@H]3CCCN[C@@H]3C2)c(F)cc2c(=O)c(C(=O)O)cn(C3CC3)c12 [moxifloxacin, reference compound]",,,,,,,,,,,,,,,,,,,,,"mean corneal thickness (S. aureus ATCC 29213; 24 h post treatment): 124.2±9.4 μm; mean corneal thickness (S. aureus ATCC 29213; 48 h post treatment): 140.3±10.3 μm; mean log10 CFU/tissue (S. aureus ATCC 29213; corneal tissues harvested after 8 dosages, ± standard error of the mean): 3.7±0.24 log10 CFU/tissue"
